Data: article PMC9481151, “Discovery of new symmetrical and asymmetrical nitrile-containing 1,4-dihydropyridine derivatives as dual kinases and P-glycoprotein inhibitors: synthesis, in vitro assays, and in silico studies” (Journal of Enzyme Inhibition and Medicinal Chemistry, 2022)

Experiments:
[1] = tested on: NCI/ADR-RES; assay: NCI single dose (10 µM) SRB screen; format: cell-based, human; conditions: ovarian cancer, 48 h
[2] = tested on: UACC-62; assay: NCI single dose (10 µM) SRB screen; format: cell-based, human; conditions: melanoma, 48 h
[3] = tested on: RXF 393; assay: NCI single dose (10 µM) SRB screen; format: cell-based, human; conditions: renal cancer, 48 h
[4] = tested on: RPMI-8226; assay: NCI single dose (10 µM) SRB screen; format: cell-based, human; conditions: leukaemia, 48 h
[5] = tested on: SF-539; assay: NCI single dose (10 µM) SRB screen; format: cell-based, human; conditions: CNS cancer, 48 h
[6] = tested on: MALME-3M; assay: NCI single dose (10 µM) SRB screen; format: cell-based, human; conditions: melanoma, 48 h
[7] = tested on: NCI 60 cancer cell lines; assay: NCI single dose (10 µM) SRB screen, mean over panel; format: cell-based, human; conditions: mean over 60 cell lines, 48 h
[8] = tested on: SF-268; assay: NCI single dose (10 µM) SRB screen; format: cell-based, human; conditions: CNS cancer, 48 h
[9] = tested on: LOX IMVI; assay: NCI single dose (10 µM) SRB screen; format: cell-based, human; conditions: melanoma, 48 h
[10] = tested on: SNB-75; assay: NCI single dose (10 µM) SRB screen; format: cell-based, human; conditions: CNS cancer, 48 h
[11] = tested on: TK-10; assay: NCI single dose (10 µM) SRB screen; format: cell-based, human; conditions: renal cancer, 48 h
[12] = tested on: SNB-19; assay: NCI single dose (10 µM) SRB screen; format: cell-based, human; conditions: CNS cancer, 48 h
[13] = tested on: T-47D; assay: NCI single dose (10 µM) SRB screen; format: cell-based, human; conditions: breast cancer, 48 h
[14] = tested on: HS578T; assay: NCI single dose (10 µM) SRB screen; format: cell-based, human; conditions: breast cancer, 48 h
[15] = tested on: Staphylococcus aureus; assay: Agar well diffusion method; conditions: for zone of inhibition at 1000 µg/mL: Staphylococcus aureus, 24 h, read-out: Diameter of inhibition zone, S. aureus; for % activity index, S. aureus: relative to ciprofloxacin
[16] = tested on: CAKI-1; assay: NCI single dose (10 µM) SRB screen; format: cell-based, human; conditions: renal cancer, 48 h
[17] = tested on: OVCAR-4; assay: NCI single dose (10 µM) SRB screen; format: cell-based, human; conditions: ovarian cancer, 48 h
[18] = tested on: NCI-H23; assay: NCI single dose (10 µM) SRB screen; format: cell-based, human; conditions: non-small cell lung cancer, 48 h
[19] = tested on: Aspergillus flavus; assay: Agar well diffusion method; conditions: for zone of inhibition at 1000 µg/mL: Aspergillus flavus, 24 h, read-out: Diameter of inhibition zone, A. flavus; for % activity index, A. flavus: relative to clotrimazole
[20] = tested on: HCC-2998; assay: NCI single dose (10 µM) SRB screen; format: cell-based, human; conditions: colon cancer, 48 h
[21] = tested on: U251; assay: NCI single dose (10 µM) SRB screen; format: cell-based, human; conditions: CNS cancer, 48 h
[22] = tested on: NCI-H226; assay: NCI single dose (10 µM) SRB screen; format: cell-based, human; conditions: non-small cell lung cancer, 48 h
[23] = tested on: MDA-MB-468; assay: NCI single dose (10 µM) SRB screen; format: cell-based, human; conditions: breast cancer, 48 h
[24] = tested on: M14; assay: NCI single dose (10 µM) SRB screen; format: cell-based, human; conditions: melanoma, 48 h
[25] = tested on: SK-MEL-28; assay: NCI single dose (10 µM) SRB screen; format: cell-based, human; conditions: melanoma, 48 h
[26] = tested on: MDA-MB-435; assay: NCI single dose (10 µM) SRB screen; format: cell-based, human; conditions: melanoma, 48 h
[27] = tested on: IGROV1; assay: NCI single dose (10 µM) SRB screen; format: cell-based, human; conditions: ovarian cancer, 48 h
[28] = tested on: HCT-15; assay: NCI single dose (10 µM) SRB screen; format: cell-based, human; conditions: colon cancer, 48 h
[29] = tested on: HOP-92; assay: NCI single dose (10 µM) SRB screen; format: cell-based, human; conditions: non-small cell lung cancer, 48 h
[30] = tested on: SW-620; assay: NCI single dose (10 µM) SRB screen; format: cell-based, human; conditions: colon cancer, 48 h
[31] = tested on: COLO 205; assay: NCI single dose (10 µM) SRB screen; format: cell-based, human; conditions: colon cancer, 48 h
[32] = tested on: Candida albicans; assay: Agar well diffusion method; conditions: for % activity index, C. albicans: relative to clotrimazole
[33] = tested on: UACC-257; assay: NCI single dose (10 µM) SRB screen; format: cell-based, human; conditions: melanoma, 48 h
[34] = tested on: Bacillus subtilis; assay: Agar well diffusion method; conditions: for % activity index, B. subtilis: relative to ciprofloxacin
[35] = tested on: 786-0; assay: NCI single dose (10 µM) SRB screen; format: cell-based, human; conditions: renal cancer, 48 h
[36] = tested on: SN12C; assay: NCI single dose (10 µM) SRB screen; format: cell-based, human; conditions: renal cancer, 48 h
[37] = tested on: NCI-H322M; assay: NCI single dose (10 µM) SRB screen; format: cell-based; conditions: non-small cell lung cancer, 48 h
[38] = tested on: PC-3; assay: NCI single dose (10 µM) SRB screen; format: cell-based, human; conditions: prostate cancer, 48 h
[39] = tested on: UO-31; assay: NCI single dose (10 µM) SRB screen; format: cell-based, human; conditions: renal cancer, 48 h
[40] = tested on: NCI-H522; assay: NCI single dose (10 µM) SRB screen; format: cell-based, human; conditions: non-small cell lung cancer, 48 h
[41] = tested on: DU-145; assay: NCI single dose (10 µM) SRB screen; format: cell-based, human; conditions: prostate cancer, 48 h
[42] = tested on: SF-295; assay: NCI single dose (10 µM) SRB screen; format: cell-based, human; conditions: CNS cancer, 48 h
[43] = tested on: HOP-62; assay: NCI single dose (10 µM) SRB screen; format: cell-based, human; conditions: non-small cell lung cancer, 48 h
[44] = tested on: BT-549; assay: NCI single dose (10 µM) SRB screen; format: cell-based, human; conditions: breast cancer, 48 h
[45] = tested on: MOLT-4; assay: NCI single dose (10 µM) SRB screen; format: cell-based, human; conditions: leukaemia, 48 h
[46] = tested on: MDA-MB-231; assay: NCI single dose (10 µM) SRB screen; format: cell-based, human; conditions: breast cancer, 48 h
[47] = tested on: SR; assay: NCI single dose (10 µM) SRB screen; format: cell-based, human; conditions: leukaemia, 48 h
[48] = tested on: OVCAR-8; assay: NCI single dose (10 µM) SRB screen; format: cell-based, human; conditions: ovarian cancer, 48 h
[49] = tested on: OVCAR-3; assay: NCI single dose (10 µM) SRB screen; format: cell-based, human; conditions: ovarian cancer, 48 h
[50] = tested on: A549/ATCC; assay: NCI single dose (10 µM) SRB screen; format: cell-based, human; conditions: non-small cell lung cancer, 48 h
[51] = tested on: Escherichia coli; assay: Agar well diffusion method; conditions: for % activity index, E. coli: relative to ciprofloxacin

CC1=C(C(=O)OCc2ccccc2)C(c2cccc(C#N)c2)C(C(=O)OCc2ccccc2)=C(C)N1 [Compound 1g, Dibenzyl 4-(3-cyanophenyl)-2,6-dimethyl-1,4-dihydropyridine-3,5-dicarboxylate]
GI% NCI/ADR-RES [1]: 45% | GI% UACC-62 [2]: 38% | GI% RXF 393 [3]: 36% | GI% RPMI-8226 [4]: 65% | GI% SF-539 [5]: 35% | GI% MALME-3M [6]: 32% | Mean GI% [7]: 41% | GI% SF-268 [8]: 38% | GI% LOX IMVI [9]: 65% | GI% SNB-75 [10]: 23% | GI% TK-10 [11]: – (Only GI% ≥ 10 are shown) | GI% SNB-19 [12]: 32% | GI% T-47D [13]: 53% | GI% HS578T [14]: 35% | zone of inhibition at 1000 µg/mL [15]: 15 mm | % activity index, S. aureus [15]: 62.5% | GI% CAKI-1 [16]: 56% | GI% OVCAR-4 [17]: 33% | GI% NCI-H23 [18]: 23% | zone of inhibition at 1000 µg/mL [19]: 14 mm | % activity index, A. flavus [19]: 56% | GI% HCC-2998 [20]: – (Only GI% ≥ 10 are shown) | GI% U251 [21]: 49% | GI% NCI-H226 [22]: 46% | GI% MDA-MB-468 [23]: 62% | GI% M14 [24]: 35% | GI% SK-MEL-28 [25]: 34% | GI% MDA-MB-435 [26]: 36% | GI% IGROV1 [27]: 45% | GI% HCT-15 [28]: 72% | GI% HOP-92 [29]: 42% | GI% SW-620 [30]: 65% | GI% COLO 205 [31]: 47% | zone of inhibition at 1000 µg/mL ([32]; Candida albicans, 24 h, read-out: Diameter of inhibition zone, C. albicans): 10 mm | % activity index, C. albicans [32]: 37% | GI% UACC-257 [33]: 36% | zone of inhibition at 1000 µg/mL ([34]; Bacillus subtilis, 24 h, read-out: Diameter of inhibition zone, B. subtilis): 11 mm | % activity index, B. subtilis [34]: 47.8% | GI% 786-0 [35]: 32% | GI% SN12C [36]: 32% | GI% NCI-H322M [37]: 15% | GI% PC-3 [38]: 76% | GI% UO-31 [39]: 34% | GI% NCI-H522 [40]: 46% | GI% DU-145 [41]: 26% | GI% SF-295 [42]: 56% | GI% HOP-62 [43]: 10% | GI% BT-549 [44]: – (Only GI% ≥ 10 are shown) | GI% MOLT-4 [45]: 68% | GI% MDA-MB-231 [46]: 37% | GI% SR [47]: 57% | GI% OVCAR-8 [48]: 41% | GI% OVCAR-3 [49]: 23% | GI% A549/ATCC [50]: 45% | zone of inhibition at 1000 µg/mL ([51]; Escherichia coli, 24 h, read-out: Diameter of inhibition zone, E. coli): 10 mm | % activity index, E. coli [51]: 38.5%

COC(=O)C1=C(C)NC(C)=C(C(=O)OCc2ccccc2)C1c1cccc(C#N)c1 (racemic) [Compound 2e, (±)-3-Benzyl 5-methyl 4-(3-cyanophenyl)-2,6-dimethyl-1,4-dihydropyridine-3,5-dicarboxylate]
GI% NCI/ADR-RES [1]: 25% | GI% UACC-62 [2]: 37% | GI% RXF 393 [3]: 14% | GI% RPMI-8226 [4]: 52% | GI% SF-539 [5]: 32% | GI% MALME-3M [6]: 24% | Mean GI% [7]: 28% | GI% SF-268 [8]: 23% | GI% LOX IMVI [9]: 61% | GI% SNB-75 [10]: 34% | GI% TK-10 [11]: – (Only GI% ≥ 10 are shown) | GI% SNB-19 [12]: 32% | GI% T-47D [13]: 11% | GI% HS578T [14]: 28% | zone of inhibition at 1000 µg/mL [15]: 8 mm | % activity index, S. aureus [15]: 33.3% | GI% CAKI-1 [16]: 27% | GI% OVCAR-4 [17]: – (Only GI% ≥ 10 are shown) | GI% NCI-H23 [18]: – (Only GI% ≥ 10 are shown) | zone of inhibition at 1000 µg/mL [19]: 10 mm | % activity index, A. flavus [19]: 40% | GI% HCC-2998 [20]: – (Only GI% ≥ 10 are shown) | GI% U251 [21]: 46% | GI% NCI-H226 [22]: 31% | GI% MDA-MB-468 [23]: 33% | GI% M14 [24]: 15% | GI% SK-MEL-28 [25]: 27% | GI% MDA-MB-435 [26]: 35% | GI% IGROV1 [27]: 36% | GI% HCT-15 [28]: 66% | GI% HOP-92 [29]: 12% | GI% SW-620 [30]: 45% | GI% COLO 205 [31]: 43% | % activity index, C. albicans [32]: – (Values below 25 are of limited value and not shown as they refer either to inactive or non-diffusing compounds) | GI% UACC-257 [33]: 21% | % activity index, B. subtilis [34]: – (Values below 25 are of limited value and not shown as they refer either to inactive or non-diffusing compounds) | GI% 786-0 [35]: 22% | GI% SN12C [36]: – (Only GI% ≥ 10 are shown) | GI% NCI-H322M [37]: – (Only GI% ≥ 10 are shown) | GI% PC-3 [38]: 51% | GI% UO-31 [39]: – (Only GI% ≥ 10 are shown) | GI% NCI-H522 [40]: 24% | GI% DU-145 [41]: 15% | GI% SF-295 [42]: 44% | GI% HOP-62 [43]: 16% | GI% BT-549 [44]: – (Only GI% ≥ 10 are shown) | GI% MOLT-4 [45]: 56% | GI% MDA-MB-231 [46]: 30% | GI% SR [47]: 33% | GI% OVCAR-8 [48]: 34% | GI% OVCAR-3 [49]: – (Only GI% ≥ 10 are shown) | GI% A549/ATCC [50]: 31% | % activity index, E. coli [51]: – (Values below 25 are of limited value and not shown as they refer either to inactive or non-diffusing compounds)
